Reference: patent publication US20110230481A2, “DERIVATIVES OF TETRABROMOBENZIMIDAZOLE, A PROCESS FOR THE PREPARATION THEREOF, A PHARMACEUTICAL COMPOSITION COMPRISING THE SAME, A METHOD OF USING THE SAME, A METHOD FOR MODULATING OR REGULATING SERINE/THREONINE KINASES, AND SERINE/THREONINE KINASES MODULATING AGENT” (SELVITA S.A., priority 2009, published 2011)

Experiments:
Assay in all cases: KINOMEscan Max
Assay type in all cases: binding
WEE2 = biological target: T1, WEE2 (Homo sapiens, UniProt P0C1S8)
T1 construct: purchased Ambit Kinomescan (contract screening service)
Summary of the method: (§1)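 Competition binding assay: test compound competes with an immobilized, active-site directed ligand for DNA-tagged kinase. Kinase captured on the ligand is quantified by qPCR of the DNA tag.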

EGFR(G719C) = biological target: T2, EGFR(G719C) (Homo sapiens, UniProt P00533, G719C); conditions: 1 μM
T2 construct: purchased Ambit (KINOMEscan Max panel service)
Summary of the method: as §1

LIMK2 = biological target: T3, LIMK2 (Homo sapiens, UniProt P53671)
T3 construct: purchased Ambit Kinomescan (contract screening)
Summary of the method: as §1

MUSK = biological target: T4, MUSK (Homo sapiens, UniProt O15146)
T4 construct: purchased Ambit Kinomescan (contract screening)
Summary of the method: as §1

RIOK1 = biological target: T5, RIOK1 (Homo sapiens, UniProt Q9BRS2)
T5 construct: DNA tag (qPCR read-out)
Summary of the method: as §1

PIP5K2B = biological target: T6, PIP5K2B (Homo sapiens, UniProt P78356)
T6 construct: purchased Ambit Kinomescan (contract screening)
Summary of the method: as §1

RIPK4 = biological target: T7, RIPK4 (Homo sapiens, UniProt P57078)
T7 construct: DNA tag (qPCR read-out)
Summary of the method: as §1

CDK2 = biological target: T8, CDK2 (Homo sapiens, UniProt P24941); conditions: 1 μM
T8 construct: purchased Ambit (KINOMEscan Max service)
Summary of the method: as §1

TGFBR2 = biological target: T9, TGFBR2 (Homo sapiens, UniProt P37173)
T9 construct: purchased Ambit Kinomescan (contract screening service)
Summary of the method: as §1

ADCK3 = ADCK3 (Homo sapiens, UniProt Q8NI60)
Summary of the method: as §1

YANK2 = biological target: T10, YANK2 (Homo sapiens, UniProt Q9NY57)
T10 construct: purchased Ambit Kinomescan (contract screening service)
Summary of the method: as §1

SIK2 = biological target: T11, SIK2 (Homo sapiens, UniProt Q9H0K1)
T11 construct: DNA tag (qPCR read-out)
Summary of the method: as §1

MYLK4 = biological target: T12, MYLK4 (Homo sapiens, UniProt Q86YV6)
T12 construct: DNA tag (qPCR read-out); purchased Ambit Kinomescan
Summary of the method: as §1

HPK1 = biological target: T13, HPK1 (Homo sapiens, UniProt Q92918)
T13 construct: purchased Ambit Kinomescan (contract panel, KINOMEscan Max)
Summary of the method: as §1

TNK1 = biological target: T14, TNK1 (Homo sapiens, UniProt Q13470)
T14 construct: DNA tag (qPCR read-out)
Summary of the method: as §1

FAK = biological target: T15, FAK (Homo sapiens, UniProt Q05397)
T15 construct: DNA tag (qPCR read-out)
Summary of the method: as §1

PRKD3 = biological target: T16, PRKD3 (Homo sapiens, UniProt O94806)
T16 construct: DNA tag (qPCR read-out)
Summary of the method: as §1

BMPR1B = biological target: T17, BMPR1B (Homo sapiens, UniProt O00238)
T17 construct: DNA tag (qPCR label); purchased Ambit Kinomescan (contract screening)
Summary of the method: as §1

MYLK = biological target: T18, MYLK (Homo sapiens, UniProt Q15746)
T18 construct: purchased Ambit (KINOMEscan Max service)
Summary of the method: as §1

MARK2 = MARK2 (Homo sapiens, UniProt Q7KZI7)
Summary of the method: as §1

PRKD1 = biological target: T19, PRKD1 (Homo sapiens, UniProt Q15139)
T19 construct: DNA tag (qPCR read-out)
Summary of the method: as §1

PHKG1 = PHKG1 (Homo sapiens, UniProt Q16816)
Summary of the method: as §1

TRKC = TRKC (Homo sapiens, UniProt Q16288)
Summary of the method: as §1

EPHA2 = EPHA2 (Homo sapiens, UniProt P29317)
Summary of the method: as §1

CAMKK1 = biological target: T20, CAMKK1 (Homo sapiens, UniProt Q8N5S9)
T20 construct: DNA tag (qPCR label); purchased Ambit Kinomescan (contract screening)
Summary of the method: as §1

[1] = biological target: ABL1(Q252H)-phosphorylated (Homo sapiens, UniProt P00519, Q252H)
Summary of the method: as §1

[2] = biological target: T21, JAK2(JH1domain-catalytic) (Homo sapiens, UniProt O60674); conditions: 1 μM
T21 construct: JAK2(JH1domain-catalytic); purchased Ambit Kinomescan (contract screening)
Summary of the method: as §1

PRKR = PRKR (Homo sapiens, UniProt P19525); conditions: 1 μM
Summary of the method: as §1

CHEK2 = CHEK2 (Homo sapiens, UniProt O96017)
Summary of the method: as §1

S6K1 = S6K1 (Homo sapiens, UniProt P23443)
Summary of the method: as §1

FYN = biological target: T22, FYN (Homo sapiens, UniProt P06241)
T22 construct: purchased Ambit Kinomescan (contract panel, KINOMEscan Max)
Summary of the method: as §1

SNRK = biological target: T23, SNRK (Homo sapiens, UniProt Q9NRH2)
T23 construct: DNA tag (qPCR read-out)
Summary of the method: as §1

MAP4K4 = biological target: T24, MAP4K4 (Homo sapiens, UniProt O95819)
T24 construct: purchased Ambit Kinomescan (contract screening)
Summary of the method: as §1

CSNK1E = biological target: T25, CSNK1E (Homo sapiens, UniProt P49674)
T25 construct: DNA tag (qPCR read-out)
Summary of the method: as §1

PRKG1 = biological target: T26, PRKG1 (Homo sapiens, UniProt Q13976)
T26 construct: DNA tag (qPCR read-out)
Summary of the method: as §1

T12 sequence (Q86YV6 whole entry): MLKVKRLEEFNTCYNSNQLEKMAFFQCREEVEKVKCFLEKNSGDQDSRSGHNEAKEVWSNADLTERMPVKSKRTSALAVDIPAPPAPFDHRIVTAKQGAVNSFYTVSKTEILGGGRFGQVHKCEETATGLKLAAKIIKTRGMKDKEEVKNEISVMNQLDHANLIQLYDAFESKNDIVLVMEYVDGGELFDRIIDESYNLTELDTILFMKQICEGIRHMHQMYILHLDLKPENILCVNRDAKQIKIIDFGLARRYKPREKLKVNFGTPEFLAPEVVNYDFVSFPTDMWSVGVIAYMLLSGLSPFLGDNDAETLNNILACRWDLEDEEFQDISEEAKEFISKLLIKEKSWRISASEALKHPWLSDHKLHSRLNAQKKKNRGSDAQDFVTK
T18 sequence (Q15746 whole entry): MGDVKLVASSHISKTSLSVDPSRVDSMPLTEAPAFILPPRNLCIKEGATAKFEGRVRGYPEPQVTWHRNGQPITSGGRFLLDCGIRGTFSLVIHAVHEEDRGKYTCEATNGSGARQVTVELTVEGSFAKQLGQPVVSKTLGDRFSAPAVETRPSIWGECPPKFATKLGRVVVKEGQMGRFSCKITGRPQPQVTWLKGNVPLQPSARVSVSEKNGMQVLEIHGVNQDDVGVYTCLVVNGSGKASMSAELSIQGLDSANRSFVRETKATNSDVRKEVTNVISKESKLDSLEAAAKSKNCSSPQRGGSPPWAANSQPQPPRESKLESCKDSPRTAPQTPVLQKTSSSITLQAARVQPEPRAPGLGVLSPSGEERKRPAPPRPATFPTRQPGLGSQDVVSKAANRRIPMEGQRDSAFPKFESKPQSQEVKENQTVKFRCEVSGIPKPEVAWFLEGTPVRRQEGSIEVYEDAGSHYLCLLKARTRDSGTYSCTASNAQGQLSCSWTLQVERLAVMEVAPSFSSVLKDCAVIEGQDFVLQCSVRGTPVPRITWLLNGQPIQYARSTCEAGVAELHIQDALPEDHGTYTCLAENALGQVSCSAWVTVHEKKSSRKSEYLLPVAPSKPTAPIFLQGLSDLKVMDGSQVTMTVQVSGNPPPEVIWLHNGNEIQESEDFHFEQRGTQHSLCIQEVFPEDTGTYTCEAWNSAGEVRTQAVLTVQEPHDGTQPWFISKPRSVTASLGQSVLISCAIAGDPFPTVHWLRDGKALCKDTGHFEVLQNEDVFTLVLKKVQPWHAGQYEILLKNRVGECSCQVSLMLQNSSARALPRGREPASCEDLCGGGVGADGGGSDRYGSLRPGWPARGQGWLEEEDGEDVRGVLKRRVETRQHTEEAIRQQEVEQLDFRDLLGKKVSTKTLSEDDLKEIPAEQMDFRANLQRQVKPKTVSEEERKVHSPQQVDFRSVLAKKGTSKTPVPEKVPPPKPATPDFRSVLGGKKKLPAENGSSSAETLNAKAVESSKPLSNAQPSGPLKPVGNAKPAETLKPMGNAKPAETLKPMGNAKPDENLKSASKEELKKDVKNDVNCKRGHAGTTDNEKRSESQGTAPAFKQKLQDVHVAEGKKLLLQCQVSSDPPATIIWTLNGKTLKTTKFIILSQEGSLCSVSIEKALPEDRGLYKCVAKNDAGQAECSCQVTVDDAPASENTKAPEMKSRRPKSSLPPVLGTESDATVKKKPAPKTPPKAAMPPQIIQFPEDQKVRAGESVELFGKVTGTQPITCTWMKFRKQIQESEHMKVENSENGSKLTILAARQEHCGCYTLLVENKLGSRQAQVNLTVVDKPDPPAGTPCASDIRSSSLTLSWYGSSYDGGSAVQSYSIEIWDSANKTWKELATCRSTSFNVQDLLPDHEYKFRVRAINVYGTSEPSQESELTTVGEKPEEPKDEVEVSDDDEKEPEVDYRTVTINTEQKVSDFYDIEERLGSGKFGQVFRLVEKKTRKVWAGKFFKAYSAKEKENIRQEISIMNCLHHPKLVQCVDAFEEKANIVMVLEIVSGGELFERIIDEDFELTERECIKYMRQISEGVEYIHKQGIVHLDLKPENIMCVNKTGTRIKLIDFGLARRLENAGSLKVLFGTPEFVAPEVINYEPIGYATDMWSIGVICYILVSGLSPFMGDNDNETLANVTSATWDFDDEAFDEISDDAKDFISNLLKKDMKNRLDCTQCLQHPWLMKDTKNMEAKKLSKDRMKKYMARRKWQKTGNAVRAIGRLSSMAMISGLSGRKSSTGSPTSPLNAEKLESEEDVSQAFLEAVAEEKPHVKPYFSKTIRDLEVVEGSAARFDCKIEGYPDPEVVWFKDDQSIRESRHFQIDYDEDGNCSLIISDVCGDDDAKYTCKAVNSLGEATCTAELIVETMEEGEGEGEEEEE
T3 sequence (P53671 whole entry): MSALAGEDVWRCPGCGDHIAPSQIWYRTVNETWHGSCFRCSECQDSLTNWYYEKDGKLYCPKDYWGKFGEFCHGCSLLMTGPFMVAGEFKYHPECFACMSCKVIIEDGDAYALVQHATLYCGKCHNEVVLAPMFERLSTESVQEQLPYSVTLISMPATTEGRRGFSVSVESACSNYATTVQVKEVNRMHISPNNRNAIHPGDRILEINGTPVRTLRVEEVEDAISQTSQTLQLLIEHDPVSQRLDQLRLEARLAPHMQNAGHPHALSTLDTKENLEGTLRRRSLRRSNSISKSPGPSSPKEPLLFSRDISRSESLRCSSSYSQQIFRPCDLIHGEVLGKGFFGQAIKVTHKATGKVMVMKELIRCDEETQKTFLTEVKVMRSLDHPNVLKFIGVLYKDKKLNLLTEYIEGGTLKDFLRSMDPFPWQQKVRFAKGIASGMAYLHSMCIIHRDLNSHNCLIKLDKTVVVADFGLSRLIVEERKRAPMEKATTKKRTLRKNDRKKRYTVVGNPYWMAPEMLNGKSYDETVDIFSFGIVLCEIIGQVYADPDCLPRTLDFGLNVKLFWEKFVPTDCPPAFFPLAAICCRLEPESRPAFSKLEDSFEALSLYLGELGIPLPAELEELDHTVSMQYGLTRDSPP
Chain of S6K1 (P23443 whole entry): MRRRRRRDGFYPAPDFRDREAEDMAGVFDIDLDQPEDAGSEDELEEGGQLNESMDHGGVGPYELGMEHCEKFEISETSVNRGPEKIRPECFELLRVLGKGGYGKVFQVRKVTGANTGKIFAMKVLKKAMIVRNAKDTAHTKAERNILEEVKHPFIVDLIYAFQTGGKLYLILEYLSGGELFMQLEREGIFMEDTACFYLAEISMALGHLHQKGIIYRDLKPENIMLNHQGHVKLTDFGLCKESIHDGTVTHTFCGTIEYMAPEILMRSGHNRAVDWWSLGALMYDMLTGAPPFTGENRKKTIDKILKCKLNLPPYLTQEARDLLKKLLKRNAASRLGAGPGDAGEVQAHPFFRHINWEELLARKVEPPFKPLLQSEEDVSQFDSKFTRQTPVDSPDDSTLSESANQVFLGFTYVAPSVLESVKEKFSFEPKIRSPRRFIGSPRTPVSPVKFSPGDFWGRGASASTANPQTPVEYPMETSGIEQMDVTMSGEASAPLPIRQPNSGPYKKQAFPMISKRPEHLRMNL
T2 sequence (P00533 25-1210 G719C): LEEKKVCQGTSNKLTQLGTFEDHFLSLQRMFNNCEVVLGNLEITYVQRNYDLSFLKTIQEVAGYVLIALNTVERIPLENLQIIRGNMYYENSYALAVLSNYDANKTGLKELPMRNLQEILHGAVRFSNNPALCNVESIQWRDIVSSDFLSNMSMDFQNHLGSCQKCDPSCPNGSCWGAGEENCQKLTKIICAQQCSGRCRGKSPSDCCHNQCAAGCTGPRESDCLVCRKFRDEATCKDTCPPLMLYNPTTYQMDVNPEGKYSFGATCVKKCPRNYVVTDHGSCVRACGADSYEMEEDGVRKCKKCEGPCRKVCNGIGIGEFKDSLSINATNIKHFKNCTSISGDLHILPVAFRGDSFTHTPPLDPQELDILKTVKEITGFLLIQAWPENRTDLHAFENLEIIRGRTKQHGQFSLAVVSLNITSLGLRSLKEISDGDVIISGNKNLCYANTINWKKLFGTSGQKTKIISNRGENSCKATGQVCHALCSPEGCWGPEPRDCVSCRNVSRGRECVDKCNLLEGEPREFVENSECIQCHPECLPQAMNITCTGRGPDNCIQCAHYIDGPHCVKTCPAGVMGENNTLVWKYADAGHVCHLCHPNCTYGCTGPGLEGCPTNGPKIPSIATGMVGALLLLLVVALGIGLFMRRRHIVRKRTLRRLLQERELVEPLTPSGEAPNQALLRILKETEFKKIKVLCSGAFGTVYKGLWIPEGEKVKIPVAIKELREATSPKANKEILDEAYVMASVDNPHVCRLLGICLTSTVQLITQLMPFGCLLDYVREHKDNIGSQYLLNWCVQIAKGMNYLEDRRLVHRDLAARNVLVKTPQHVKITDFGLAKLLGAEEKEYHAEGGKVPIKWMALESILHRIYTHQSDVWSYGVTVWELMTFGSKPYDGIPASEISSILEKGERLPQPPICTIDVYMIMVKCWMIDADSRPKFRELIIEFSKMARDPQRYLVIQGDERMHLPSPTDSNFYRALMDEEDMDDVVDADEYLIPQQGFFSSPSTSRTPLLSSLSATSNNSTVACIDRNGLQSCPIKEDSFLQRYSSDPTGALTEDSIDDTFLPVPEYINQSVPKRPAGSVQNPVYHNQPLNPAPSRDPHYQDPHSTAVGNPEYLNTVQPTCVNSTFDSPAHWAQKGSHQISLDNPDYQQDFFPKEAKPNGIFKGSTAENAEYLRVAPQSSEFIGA
T25 sequence (P49674 whole entry): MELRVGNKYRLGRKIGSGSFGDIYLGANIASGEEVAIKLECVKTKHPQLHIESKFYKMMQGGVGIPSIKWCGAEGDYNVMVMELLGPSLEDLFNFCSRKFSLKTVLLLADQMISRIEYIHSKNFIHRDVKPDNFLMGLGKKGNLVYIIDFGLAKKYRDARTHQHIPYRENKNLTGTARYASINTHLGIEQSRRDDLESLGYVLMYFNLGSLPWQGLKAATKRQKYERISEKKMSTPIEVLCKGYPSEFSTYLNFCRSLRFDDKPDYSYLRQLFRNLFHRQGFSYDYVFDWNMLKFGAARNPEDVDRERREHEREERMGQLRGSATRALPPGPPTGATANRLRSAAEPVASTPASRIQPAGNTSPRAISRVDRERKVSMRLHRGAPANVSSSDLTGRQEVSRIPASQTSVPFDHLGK

`NCCCNc1nc2c(Br)c(Br)c(Br)c(Br)c2[nH]1` [Compound 11, N-(3-aminopropyl)-4,5,6,7-tetrabromo-1H-benzo[d]imidazol-2-amine] was tested, and the remaining binding at 1 µM (WEE2) was 100%, the “% binding” value (EGFR(G719C)) was 100% and the remaining binding at 1 µM (LIMK2) was 96%. For the same molecule, the remaining binding at 1 µM (MUSK) was 97%, the remaining binding at 1 µM (RIOK1) was 56% and the remaining binding at 1 µM (PIP5K2B) was 97%. The remaining binding at 1 µM (RIPK4) was 100%, the “% binding” value (CDK2) was 71% and the remaining binding at 1 µM (TGFBR2) was 100%. The remaining binding at 1 µM (ADCK3) was 76%, the remaining binding at 1 µM (YANK2) was 100% and the remaining binding at 1 µM (SIK2) was 100%. It also gave a remaining binding at 1 µM (MYLK4) of 24%, a remaining binding at 1 µM (HPK1) of 100% and a remaining binding at 1 µM (TNK1) of 90%. It also gave a remaining binding at 1 µM (FAK) of 89%, a remaining binding at 1 µM (PRKD3) of 27% and a remaining binding at 1 µM (BMPR1B) of 100%. The remaining binding at 1 µM (MYLK) was 58%, the remaining binding at 1 µM (MARK2) was 94% and the remaining binding at 1 µM (PRKD1) was 28%. For the same molecule, the remaining binding at 1 µM (PHKG1) was 94%, the remaining binding at 1 µM (TRKC) was 94% and the remaining binding at 1 µM (EPHA2) was 92%. The remaining binding at 1 µM (CAMKK1) was 100%, the remaining binding at 1 µM [1] was 100% and the “% binding” value [2] was 98%. For the same molecule, the “% binding” value (PRKR) was 91%, the remaining binding at 1 µM (CHEK2) was 80% and the remaining binding at 1 µM (S6K1) was 79%. For the same molecule, the remaining binding at 1 µM (FYN) was 100%, the remaining binding at 1 µM (SNRK) was 100% and the remaining binding at 1 µM (MAP4K4) was 98%. For the same molecule, the remaining binding at 1 µM (CSNK1E) was 34% and the remaining binding at 1 µM (PRKG1) was 53%.
